# Results as given in US5084443A, “Promoting expression of acetylcholine receptors with LHRH antagonist” (Biomeasure, Inc., priority 1989, dated 1992).
# Like-named read-outs stand apart in the source and are kept apart here.
# Legend:
# acetylcholine receptors = format: in vivo, Sprague Dawley rats; conditions: for AChR (cpm) / AChR: peptide crushed; for AChR: fmoles per ug protein
# denervated EDL muscle = assay: Denervation atrophy of EDL muscle after peroneal nerve crush (wet muscle weight, protein content); format: in vivo, Sprague Dawley rats; conditions: for Muscle wt / Proteins: peptide crushed; for Muscle wt: wet EDL weight; for Proteins: ug protein content per mg muscle weight
# Protocol: LHRH analogs can be tested for effectiveness in treating injured nerve tissue or preserving muscle mass according to the testing procedures described below for the LHRH analog BIM-21009. BIM-21009 is an antagonist of LHRH activity having the amino acid formula N-Acetyl-D-Naphthylalanine-D-para-Cl-Phe-D-Phe-Ser-Tyr-D-Arg-Phe-Arg-Pro-D-Ala-NH2. BIM-21009 was administered to animals both prior to and after denervation. The animals were prepared for treatment as follows.
# Adult male and female Sprague Dawley rats (Hilltop) weighing approximately 250-275 g were housed in groups of three of the same sex and provided with Purina rat chow and water ad libitum. They were maintained in a 12L:12D photoperiod with lights off at 19:00 hr. Animals were divided into 2 groups having six subdivisions each of 5-7 animals: (1) four days post-lesion: "sham crushed" (i.e., sham nerve crush) males and females, "intact crushed" (i.e., nerve crush control group) males and females, and "LHRH antagonist treated and crushed" (i.e., peptide treatment after nerve crush, also referred to as "peptide crushed") males and females; and (2) twelve days post-lesion: sham crushed males and females, intact crushed males and females, and LHRH treated and crushed males and females.
# All animals were anesthetized with an 8% solution of chloral hydrate (0.4 g/kg). An incision was made on the left leg and the peroneal nerve was exposed at its site of entrance into the peroneal longus muscle. The nerve was crushed with a watchmaker forcep having a uniformly filed tip of 0.2 mm, by applying pressure on the nerve for 10 seconds, rotating the forceps, and applying pressure again on the opposite side for another 10 seconds. After crush, this area of approximately 1 mm becomes translucid. This modified crush method gives well-defined axonal interruption without disrupting the connective tissue sheaths or blood vessels in the region.
# All chemically treated animals received 1 s.c. injection of the LHRH antagonist BIM-21009 at a dosage of 5 mg/kg 24 hrs prior to denervation. Animals in the 12 day groups received an additional injection of 5 mg/kg 6 days after the first injection.
# Dissections were performed between 13:00 and 15:00 hrs. The peroneal nerve was allowed to regenerate for 4 or 12 days, after which the animals were anesthetized with chloral hydrate (0.4 g/kg), the extensor digitorum longus ("EDL") was dissected, frozen on powdered dry ice and stored at -70° C. until the day of the assay.
# The Lowry Method was used for protein determinations. Statistical analysis was performed using 2×2 ANOVA, 1 way ANOVA. Tukey's HSD test was used for post-hoc comparisons.
# [1] = females, 4 days post-lesion, 5 mg/kg s.c.
# [2] = females, 12 days post-lesion, 2 x 5 mg/kg s.c.
# [3] = males, 4 days post-lesion, 5 mg/kg s.c.
# [4] = males, 12 days post-lesion, 2 x 5 mg/kg s.c.
substance,measurement,setting,value
N-Acetyl-D-Naphthylalanine-D-para-Cl-Phe-D-Phe-Ser-Tyr-D-Arg-Phe-Arg-Pro-D-Ala-NH2 [BIM-21009],ratio of cpm/mg muscle vs intact crushed groups,acetylcholine receptors; both males and females (FIG. 5),higher ratio of cpm/mg muscle
same,number of ACh receptors,"acetylcholine receptors; both sexes, at 4 days after nerve crush, more marked in males",dramatic increase
same,time course of effect on ACh receptor number,acetylcholine receptors; day 4 vs day 12 post-lesion,maximal effect at day 4 post-lesion and a minimal or null effect by day 12
same,AChR (cpm),acetylcholine receptors; [1],23.39 cpm
same,AChR,acetylcholine receptors; [1],90.07 fmol
same,AChR (cpm),acetylcholine receptors; [2],15.34 cpm
same,AChR,acetylcholine receptors; [2],65.74 fmol
same,ratio of AChR number/muscle (fM AChR/mg muscle or fM/ug protein) vs crushed group with intact gonads,acetylcholine receptors; male and female rats (FIGS. 3 and 4),significantly higher ratio
same,AChR number/muscle weight ratio vs crushed untreated controls,acetylcholine receptors; males with intact gonads (FIG. 4),higher than in the crushed untreated controls
same,AChR (cpm),acetylcholine receptors; [3],38.37 cpm
same,AChR,acetylcholine receptors; [3],166.96 fmol
same,AChR (cpm),acetylcholine receptors; [4],19.01 cpm
same,AChR,acetylcholine receptors; [4],82.09 fmol
same,atrophy of the denervated EDL muscle vs crushed control group,"denervated EDL muscle; both at 4 days and at 12 days post-lesion, less striking in females than in males",significantly decreased
same,recovery from the crush-induced muscle atrophy: protein content,denervated EDL muscle; females as well as males (FIG. 2),increase in protein content rather than fat accumulation or edema
same,Muscle wt,"denervated EDL muscle; females, 4 days post-lesion, 5 mg/kg s.c. 24 hrs prior to denervation",83.8 mg
same,Proteins,denervated EDL muscle; [1],4.58 µg
same,Muscle wt,"denervated EDL muscle; females, 12 days post-lesion, 5 mg/kg s.c. 24 hrs prior to denervation plus 5 mg/kg 6 days later",84.0 mg
same,Proteins,denervated EDL muscle; [2],4.23 µg
same,protection of EDL muscle from denervation atrophy,denervated EDL muscle; males,protects the EDL muscle in the males from denervation atrophy
same,Muscle wt,"denervated EDL muscle; males, 4 days post-lesion, 5 mg/kg s.c. 24 hrs prior to denervation",81.2 mg
same,Proteins,denervated EDL muscle; [3],4.05 µg
same,Muscle wt,"denervated EDL muscle; males, 12 days post-lesion, 5 mg/kg s.c. 24 hrs prior to denervation plus 5 mg/kg 6 days later",83.1 mg
same,Proteins,denervated EDL muscle; [4],4.34 µg
